Measurements published in US20050101595A1, “N-containing cycloalkyl-substituted amino-thiazole derivatives and pharmaceutical compositions for inhibiting cell proliferation and methods for their use” (PFIZER INC., priority 2003, published 2005).
Structures can show the parent of a compound that is named as a salt. Where two headings read alike, the source gives them in different places.

Columns and labels:
CDK2/Cyclin A = CDK2/Cyclin A (Homo sapiens, UniProt P24941); assay: Inhibition of CDK2/Cyclin A Retinoblastoma Kinase Activity; type: biochemical; settings: apparent Ki, CDK2/proteolyzed cyclin A, Rb fragment substrate, 25 μM ATP
Method in brief: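 Human CDK2, baculovirus/insect-cell expressed, complexed with proteolyzed cyclin A (10 nM or 19 nM CDK2) phosphorylates an Rb fragment with 25 μM [32P/33P]ATP at pH 7.4, 30° C, for 60 or 75 minutes under initial-rate conditions. Filter-captured radioactivity is read by phosphorimager; apparent Ki from competitive-inhibition fits.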

[1] = target: human CDK4 and genetically truncated (1-264) cyclin D3 (Homo sapiens, UniProt P11802); assay: Inhibition of CDK4/Cyclin D Retinoblastoma Kinase Activity; type: biochemical; settings: apparent Ki, CDK4/truncated cyclin D3, Rb fragment substrate, 25 μM ATP
Chain of human CDK4 and genetically truncated (1-264) cyclin D3 (P11802 whole entry, the tested form may be a part): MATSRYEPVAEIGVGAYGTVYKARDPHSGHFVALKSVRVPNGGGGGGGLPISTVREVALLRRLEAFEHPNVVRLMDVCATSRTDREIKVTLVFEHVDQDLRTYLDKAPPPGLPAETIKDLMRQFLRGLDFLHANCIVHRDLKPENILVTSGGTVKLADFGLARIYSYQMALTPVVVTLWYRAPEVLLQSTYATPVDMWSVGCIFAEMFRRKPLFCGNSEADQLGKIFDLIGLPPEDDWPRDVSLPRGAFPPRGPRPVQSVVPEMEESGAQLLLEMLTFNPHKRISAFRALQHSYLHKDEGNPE
Chain of human CDK4 and genetically truncated (1-264) cyclin D3 (P30281 1-264 partner): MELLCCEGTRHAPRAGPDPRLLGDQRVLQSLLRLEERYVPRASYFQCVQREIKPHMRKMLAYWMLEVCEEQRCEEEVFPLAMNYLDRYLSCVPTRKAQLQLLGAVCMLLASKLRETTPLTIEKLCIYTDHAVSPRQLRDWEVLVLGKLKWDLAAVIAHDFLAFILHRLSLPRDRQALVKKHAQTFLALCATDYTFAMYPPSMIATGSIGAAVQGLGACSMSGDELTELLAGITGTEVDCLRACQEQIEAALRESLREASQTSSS
Method: Cyclin-dependent kinase activity was measured by quantifying the enzyme-catalyzed, time-dependent incorporation of radioactive phosphate from [^32P]ATP or [^33P]ATP into a protein substrate. Unless noted otherwise, assays were performed in 96-well plates in a total volume of 50 μL, in the presence of 10 mM HEPES (N-[2-hydroxyethyl]piperazine-N′-[2-ethanesulfonic acid]) (pH 7.4), 10 mM MgCl2, 25 μM adenosine triphosphate (ATP), 1 mg/mL ovalbumin, 5 μg/mL leupeptin, 1 mM dithiothreitol, 10 mM β-glycerophosphate, 0.1 mM sodium vanadate, 1 mM sodium fluoride, 2.5 mM ethylene glycol-bis(β-aminoethyl ether)-N,N,N′N′-tetraacetic acid (EGTA), 2% (v/v) dimethylsulfoxide, and 0.03-0.4 μCi [^32/33P]ATP per reaction. Reactions were initiated with enzyme, incubated at 30° C., and terminated after 20 minutes by the addition of ethylenediaminetetraacetic acid (EDTA) to 250 mM. The phosphorylated substrate was then captured on a nitrocellulose or phosphocellulose membrane using a 96-well filtration manifold, and unincorporated radioactivity was removed by repeated washing with 0.85% phosphoric acid. Radioactivity was quantified by exposing the dried membranes to a phosphorimager.
Inhibition was measured relative to control wells that contained all reaction components including 2% (v/v) DMSO but no compound, after subtraction of background radioactivity measured in the absence of enzyme. Apparent Ki values of discrete compounds were measured by assaying enzyme activity in the presence of different inhibitor compound concentrations and subtracting the background radioactivity measured in the absence of enzyme. The kinetic parameters (kcat, Km for ATP) were measured for each enzyme under the usual assay conditions by determining the dependence of initial rates on ATP concentration. Inhibition data were fit to an equation for competitive inhibition using Kaleidagraph (Synergy Software), or were fit to an equation for competitive tight-binding inhibition using the software KineTic (BioKin, Ltd.).
Inhibition of CDK4/Cyclin D Retinoblastoma Kinase Activity:
A complex of human CDK4 and genetically truncated (1-264) cyclin D3 was purified using traditional biochemical chromatographic techniques from insect cells that had been co-infected with the corresponding baculovirus expression vectors (see e.g., Meijer and Kim, “Chemical Inhibitors of Cyclin-Dependent Kinases,” Methods in Enzymol,. vol. 283 (1997), pp. 113-128.). The enzyme complex (5 nM) was assayed with 0.3-0.5 μg of purified recombinant retinoblastoma protein fragment (Rb) as a substrate. The engineered Rb fragment (residues 386-928 of the native retinoblastoma protein; 62.3 kDa) contains the majority of the phosphorylation sites found in the native 106-kDa protein, as well as a tag of six histidine residues for ease of purification. Phosphorylated Rb substrate was captured by microfiltration on a nitrocellulose membrane and quantified using a phosphorimager as described above. For measurement of tight-binding inhibitors, the assay duration was extended to 60 minutes, during which the time-dependence of product formation was linear and initial rate conditions were met.

HCT-116 cell line = assay: Inhibition of cell growth, tetrazolium salt (MTT) assay; type: cell-based; settings: Homo sapiens, HCT-116, 120 h, MTT, three to five days, read-out: HCT-116 IC50
Method in brief: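 First, cells were seeded in McCoy's 5A medium and held 4 h. Next, inhibitor concentrations in 0.5% (v/v) DMSO were applied for three to five days at 37° C, 5% CO2. Finally, after 4 h with 0.2 mg/mL MTT and medium removal, solubilized formazan was measured at 540 nm.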

Row | SMILES | Ki (CDK2/Cyclin A) | Ki [1] | IC50 (HCT-116 cell line; first HCT-116 column (c4)) | IC50 (HCT-116 cell line; second HCT-116 column (c5))
1 | CNc1ccc(S(=O)(=O)N2CCC(Nc3nc(N)c(C(=O)c4c(F)cccc4F)s3)CC2)cn1 [Example G7, 1-{4-Amino-2-[1-(6-methylamino-pyridine-3-sulfonyl)-piperidin-4-ylamino]-thiazol-5-yl}-1-(2,6-difluoro-phenyl)-methanone] | 0.75 nM | 1.6 nM | 180 nM | 650 nM
2 | CS(=O)(=O)N1CC[C@H](Nc2nc(N)c(C(=O)c3c(F)cccc3F)s2)C1 [Example F41, [4-3S-Amino-2-(1-methanesulfonyl-pyrrolidin-3-ylamino)-thiazol-5-yl]-(2,6-difluoro-phenyl)-methanone] | 750 nM | 1600 nM |  | 
3 | Nc1nc(NC2CCN(C(=O)c3ccc(Br)cc3)C2)sc1C(=O)c1c(F)cccc1F (stereo not shown) [Example C18, {4-Amino-2-[1-(4-bromo-benzoyl)-pyrrolidin-3-ylamino]-thiazol-5-yl}-(2,6-difluoro-phenyl)-methanone] | 77 nM | 210 nM |  | 
4 | Nc1nc(NC2CCN(S(=O)(=O)CCN3CCC(c4ccccc4)C3)CC2)sc1C(=O)c1c(F)cccc1F (stereo not shown) [Example N5, (4-Amino-2-{1-[2-(3-phenyl-pyrrolidin-1-yl)-ethanesulfonyl]-piperidin-4-ylamino}-thiazol-5-yl)-(2,6-difluoro-phenyl)-methanone Hydrochloride Salt.] | 1.8 nM | 1.5 nM |  | 
5 | Nc1nc(NC2CCN(S(=O)(=O)c3cncc(Cl)n3)CC2)sc1C(=O)c1c(F)cccc1F [Example F49, {4-Amino-2-[1-(6-chloro-pyrazine-2-sulfonyl)-piperidin-4-ylamino]-thiazol-5-yl}-(2,6-difluoro-phenyl)-methanone] | 0.46 nM | 1.1 nM |  | 
6 | CN(C)S(=O)(=O)N1CCC(Nc2nc(N)c(C(=O)c3c(F)cccc3F)s2)CC1 [Example E1, 4-[4-Amino-5-(2,6-difluoro-benzoyl)-thiazol-2-ylamino]-piperidine-1-sulfonic acid dimethylamide] | 14 nM | 22 nM |  | 
7 | C[C@@H](NC(=O)N1CCC(Nc2nc(N)c(C(=O)c3c(F)cccc3F)s2)CC1)c1ccccc1 [Example B3, 4-[4-Amino-5-(2,6-difluoro-benzoyl)-thiazol-2-ylamino]-piperidine-1-carboxylic Acid (1R-Phenyl-ethyl)-amide] | 190 nM | 420 nM |  | 
8 | Nc1nc(NC2CCNCC2)sc1C(=O)c1c(F)cccc1F [Example A6, [4-Amino-2-(piperidin-4-ylamino)-thiazol-5-yl]-(2,6-difluoro-phenyl)-methanone] | 1000 nM | 830 nM |  | 
9 | Nc1nc(NC2CCN(S(=O)(=O)c3ccc(Cl)nc3)CC2)sc1C(=O)c1c(F)cccc1F [Example F21, 1-(4-Amino-2-[1-(6-chloro-pyridine-3-sulfonyl)-piperidin-4-ylamino]-thiazol-5-yl}-1-(2,6-difluoro-phenyl)-methanone] | 1.7 nM | 2.5 nM |  | 
10 | Nc1nc(NC2CCN(S(=O)(=O)CCCn3ccnn3)CC2)sc1C(=O)c1c(F)cccc1F [Example K3, 1-{4-Amino-2-[1-(3-triazol-1-yl-propane-1-sulfonyl)-piperidin-4-ylamino]-thiazol-5-yl}-1-(2,6-difluoro-phenyl)-methanone.] | 4.4 nM | 4 nM |  | 
11 | CCOC(=O)N1CCC(Nc2nc(N)c(C(=O)c3c(F)cccc3F)s2)CC1 [Example A1, 4-[4-Amino-5-(2,6-difluoro-benzoyl)-thiazol-2-ylamino]-piperidine-1-carboxylic Acid Ethyl Ester] | 190 nM | 82 nM |  | 
12 | COc1ccc(OC)c(NC(=O)N2CCC(Nc3nc(N)c(C(=O)c4c(F)cccc4F)s3)CC2)c1 [Example B4, 4-[4-Amino-5-(2,6-difluoro-benzoyl)-thiazol-2-ylamino]-piperidine-1-carboxylic Acid (2,5-Dimethoxy-phenyl)-amide] | 66 nM | 62 nM |  | 
13 | N#Cc1ccc(S(=O)(=O)N2CC[C@H](Nc3nc(N)c(C(=O)c4c(F)cccc4F)s3)C2)cc1 [Example F40, 4-{3S-[4-Amino-5-(2,6-difluoro-benzoyl)-thiazol-2-ylamino]-pyrrolidine-1-sulfonyl}-benzonitrile] | 58 nM | 380 nM |  | 
14 | N#Cc1ccc(S(=O)(=O)N2CCC(Nc3nc(N)c(C(=O)c4c(F)cccc4F)s3)C2)cc1 (stereo not shown) [Example F38, 4-{3-[4-Amino-5-(2,6-difluoro-benzoyl)-thiazol-2-ylamino]-pyrrolidine-1-sulfonyl}-benzonitrile] | 99 nM | 360 nM |  | 
15 | CC(=O)/C=C/C(=O)N1CCC(Nc2nc(N)c(C(=O)c3c(F)cccc3F)s2)CC1 [Example D16, 1-{4-[4-Amino-5-(2,6-difluoro-benzoyl)-thiazol-2-ylamino]-piperidin-1-yl}-pent-2(E)-ene-1,4-dione] |  | 140 nM | 82 nM | 150 nM
16 | COc1ccccc1/C=C\C(=O)N1CCC(Nc2nc(N)c(C(=O)c3c(F)cccc3F)s2)CC1 [Example D18, 1-{4-[4-Amino-5-(2,6-difluoro-benzoyl)-thiazol-2-ylamino]-piperidin-1-yl}3(Z)-(2-methoxy-phenyl)-propenone] | 54 nM | 18 nM |  | 
17 | CC(C)NC(=O)N1CCC(Nc2nc(N)c(C(=O)c3c(F)cccc3F)s2)CC1 [Example B1, 4-[4-Amino-5-(2,6-difluoro-benzoyl)-thiazol-2-ylamino]-piperidine-1-carboxylic Acid Isopropylamide] | 410 nM | 380 nM |  | 
18 | Cc1ccc(C(=O)/C=C/C(=O)N2CCC(Nc3nc(N)c(C(=O)c4c(F)cccc4F)s3)CC2)cc1 [Example D9, 1-{4-[4-Amino-5-(2,6-difluoro-benzoyl)-thiazol-2-ylamino]-piperidin-1-yl}-4-p-tolyl-but-2(E)-ene-1,4-dione] | 510 nM | 150 nM |  | 
19 | COc1ccc(Cl)cc1C(=O)N1CCC(Nc2nc(N)c(C(=O)c3c(F)cccc3F)s2)CC1 [Example D19, {4-Amino-2-[1-(5-chloro-2-methoxy-benzoyl)-piperidin-4-ylamino]-thiazol-5-yl}-(2,6-difluoro-phenyl)-methanone] | 105 nM | 79 nM |  | 
20 | CS(=O)(=O)N1CCC(Nc2nc(N)c(C(=O)c3c(F)cccc3F)s2)C1 (stereo not shown) [Example F39, [4-Amino-2-(1-methanesulfonyl-pyrrolidin-3-ylamino)-thiazol-5-yl]-(2,6-difluoro-phenyl)-methanone] | 520 nM | 330 nM |  | 
21 | CC1(C)CC(Nc2nc(N)c(C(=O)c3c(F)cccc3F)s2)CC(C)(C)N1 [Example A2, [4-Amino-2-(2,2,6,6-tetramethyl-piperidin-4-ylamino)-thiazol-5-yl]-(2,6-difluoro-phenyl)-methanone] | > 5000 nM | > 2000 nM |  | 
22 | Nc1nc(NC2CCN(S(=O)(=O)c3ccc([N+](=O)[O-])cn3)CC2)sc1C(=O)c1c(F)cccc1F [Example F29, 1-{4-Amino-2-[1-(5-nitro-pyridine-2-sulfonyl)-piperidin-4-ylamino]-thiazol-5-yl}-1-(2,6-difluoro-phenyl)-methanone] | 1000 nM | 400 nM |  | 
23 | Nc1nc(NC2CCN(S(=O)(=O)c3ccc(-n4ccnc4)cc3)CC2)sc1C(=O)c1c(F)cccc1F [Example G30, 1-{4-Amino-2-[1-(4-imidazol-1-yl-benzenesulfonyl)-piperidin-4-ylamino]-thiazol-5-yl}-1-(2,6-difluoro-phenyl)-methanone] | 0.31 nM | 0.45 nM |  | 
